Data: patent US11447497B2, “(S)-3-(2-(4-(benzyl)-3-oxopiperazin-1-yl)acetamido)-4-oxo-5-(2,3,5,6-tetrafluorophenoxy)pentanoic acid derivatives and related compounds as caspase inhibitors for treating cardiovascular diseases” (HISTOGEN, INC., priority 2018, dated 2022)

Key:
Format in all cases: biochemical
[1] = biological target: Caspase-3 (Homo sapiens (Human), UniProt P42574); experiment: Caspase-3 assay, inhibition of caspase activity; conditions: human caspase-3
Description: (§1) Assay for the Inhibition of Caspase Activity and Determination of IC50 Values
(§2) Human caspases were purchased from Enzo Biosciences and used according to the manufacturer's instructions. An exemplary caspase assay, for Caspase-1, is provided below:
(§3) The data was graphed as OD405 nm vs time, and the slope was determined over the linear portion of the curve. The rates in OD/min were converted to substrate/min using an extinction coefficient for p-nitroaniline of 10,500 M-1 cm-1, and were adjusted for pathlength of sample. Similarly assays were conducted for Caspase-3, Caspase-8 and Caspase-9. The Table below provides a summary of the binding data for the compounds prepared according to Examples 1-4: […]

[2] = biological target: Caspase-9 (Homo sapiens (Human), UniProt P55211); experiment: Caspase-9 assay, inhibition of caspase activity; conditions: human caspase-9
Sequence of Caspase-9 (P55211 1-315): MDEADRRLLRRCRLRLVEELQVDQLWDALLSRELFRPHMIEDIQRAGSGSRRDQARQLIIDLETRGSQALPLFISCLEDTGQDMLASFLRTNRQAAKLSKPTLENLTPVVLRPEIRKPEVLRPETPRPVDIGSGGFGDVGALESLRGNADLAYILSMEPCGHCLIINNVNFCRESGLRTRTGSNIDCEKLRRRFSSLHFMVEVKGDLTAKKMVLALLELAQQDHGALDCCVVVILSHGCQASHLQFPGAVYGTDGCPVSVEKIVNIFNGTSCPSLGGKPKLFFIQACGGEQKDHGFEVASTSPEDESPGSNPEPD
Sequence of Caspase-9 (P55211 331-416): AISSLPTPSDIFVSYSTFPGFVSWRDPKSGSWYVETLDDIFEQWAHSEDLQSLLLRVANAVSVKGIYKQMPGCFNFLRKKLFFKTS
Description: as §1, §2, §3

[3] = biological target: Caspase-1 (Homo sapiens (Human), UniProt P29466); experiment: Caspase-1 assay, inhibition of caspase activity (Ac-YVAD-pNA substrate); conditions: human caspase-1, Ac-YVAD-pNA 200 μM, read at 405 nm
Sequence of Caspase-1 (P29466 120-297): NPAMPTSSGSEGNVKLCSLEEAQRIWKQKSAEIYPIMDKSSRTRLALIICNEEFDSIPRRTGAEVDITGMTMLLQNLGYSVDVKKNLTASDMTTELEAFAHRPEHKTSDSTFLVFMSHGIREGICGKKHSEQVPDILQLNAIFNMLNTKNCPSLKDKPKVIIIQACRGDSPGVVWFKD
Sequence of Caspase-1 (P29466 317-404): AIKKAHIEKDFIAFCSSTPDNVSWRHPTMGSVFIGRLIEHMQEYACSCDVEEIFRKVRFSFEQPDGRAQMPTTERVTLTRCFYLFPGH
Description: as §1, §2
Caspase-1 was diluted to 10 U/μl in assay buffer consisting of 50 mM HEPES, pH 7.4, 100 mM NaCl, 0.1% CHAPS, 1 mM EDTA, 10% glycerol and 10 mM DTT.
45 μl of assay buffer was added into ½ volume microtiter plate. The plate was allowed to equilibrate to assay temperature. 5 μl of Caspase-1 (10 U/μl) was added to each appropriate well. Two 2 blank wells containing just assay buffer without Caspase-1 were included on the plate.
The reaction was started by the addition of 50 μl Ac-YVAD-pNA substrate, for a final substrate concentration of 200 μM. The reaction was continuously monitored at 405 nm.
as §3

[4] = biological target: Caspase-8 (Homo sapiens (Human), UniProt Q14790); experiment: Caspase-8 assay, inhibition of caspase activity; conditions: human caspase-8
Sequence of Caspase-8 (Q14790 217-374): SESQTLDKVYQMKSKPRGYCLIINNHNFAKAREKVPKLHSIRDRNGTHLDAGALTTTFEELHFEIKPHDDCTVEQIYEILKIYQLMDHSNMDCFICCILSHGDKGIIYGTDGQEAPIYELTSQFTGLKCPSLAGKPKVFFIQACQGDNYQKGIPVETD
Sequence of Caspase-8 (Q14790 385-479): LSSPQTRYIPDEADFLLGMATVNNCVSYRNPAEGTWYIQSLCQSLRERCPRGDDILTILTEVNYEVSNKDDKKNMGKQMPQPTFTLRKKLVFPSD
Description: as §1, §2, §3

Sequence of Caspase-3 (P42574 29-175): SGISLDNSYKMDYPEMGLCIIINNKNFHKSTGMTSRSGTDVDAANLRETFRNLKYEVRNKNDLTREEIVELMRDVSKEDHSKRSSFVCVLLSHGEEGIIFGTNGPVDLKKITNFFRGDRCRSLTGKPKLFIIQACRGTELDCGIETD
Sequence of Caspase-3 (P42574 176-277): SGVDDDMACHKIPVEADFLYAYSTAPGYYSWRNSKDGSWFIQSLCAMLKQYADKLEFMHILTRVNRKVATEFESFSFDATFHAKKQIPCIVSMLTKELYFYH

IC50 [1] | IC50 [2] | IC50 [3] | IC50 [4] | SMILES
132 nM | 122 nM | 9 nM | 132 nM | O=C(O)C[C@H](NC(=O)CN1CCN(Cc2ccccc2)C(=O)C1)C(=O)COc1c(F)c(F)cc(F)c1F [Example 1, (S)-3-(2-(4-Benzyl-3-oxopiperazin-1-yl)acetamido)-4-oxo-5-(2,3,5,6-tetrafluorophenoxy)pentanoic acid]
32 nM | 38 nM | 4 nM | 28 nM | O=C(O)C[C@H](NC(=O)CN1CCN(Cc2ccccc2)CC1=O)C(=O)COc1c(F)c(F)cc(F)c1F [Example 2, (S)-3-(2-(4-Benzyl-2-oxopiperazin-1-yl)acetamido)-4-oxo-5-(2,3,5,6-tetrafluorophenoxy)pentanoic acid]
200 nM | 107 nM | 2 nM | 1 nM | O=C(O)C[C@H](NC(=O)CN1CCN(S(=O)(=O)c2ccccc2)CC1)C(=O)COc1c(F)c(F)cc(F)c1F [Example 4, (S)-4-oxo-3-(2-(4-(phenylsulfonyl)piperazin-1-yl)acetamido)-5-(2,3,5,6-tetrafluorophenoxy)pentanoic acid]
1000 nM | 1000 nM | 65 nM | 396 nM | O=C(O)C[C@H](NC(=O)CN1CCN(Cc2ccccc2)C(=O)C1)C(=O)COc1ccnc(C(F)(F)F)n1 [Example 3, (S)-3-(2-(4-Benzyl-3-oxopiperazin-1-yl)acetamido)-4-oxo-5-((2-(trifluoromethyl)pyrimidin-4-yl)oxy)pentanoic acid]
